From ChEMBL document CHEMBL5137099, “Discovery of Novel cccDNA Reducers toward the Cure of Hepatitis B Virus Infection” (J Med Chem, 2022)
pIC50: −log10 of the molar value. Converted amounts (≈) assume the structure as drawn. The source made the active and inactive calls. No cut-off for these calls is given here.

Key:
Hepatitis B virus [1] = assay: Antiviral activity against HBV infected in human primary hepatocyte cells assessed as reduction in HBV cccDNA production by measuring inhibition of HBsAg secretion measured after 48 hrs by ELISA; assay type: functional, organism-based
[2] = Permeability of the compound by PAMPA analysis; assay type: ADME; details: read-out: permeability
[3] = Aqueous solubility of the compound; assay type: physicochemical; details: buffer
[4] = Octanol-aqueous buffer distribution coefficient, log D of the compound at pH 7.4 by CAMDIS assay; assay type: physicochemical
Hepatitis B virus [5] = assay: Antiviral activity against HBV infected in human HepDES19 cells assessed as reduction in HBV cccDNA production by measuring inhibition of HBeAg secretion incubated for 5 days by ELISA; assay type: functional, organism-based; details: HepDES19, 120 h
Hepatitis B virus [6] = assay: Antiviral activity against HBV infected in human HepG2 cells assessed as reduction in HBeAg secretion incubated for 5 days by counter screen assay; assay type: functional, organism-based; details: HepG2, 120 h
[7] = Metabolic stability in mouse hepatocytes assessed as intrinsic clearance; assay type: ADME, cell-based, Hepatocyte; details: read-out: CLH
[8] = fCmax in HBVcircle mouse model at 100 mg/kg BID; assay type: ADME, organism-based; details: in vivo
[9] = Tmax in C3H/J mouse at 5 mg/kg, po by LC-MS/MS analysis; assay type: ADME, organism-based; details: in vivo
[10] = fCaverage in HBVcircle mouse model at 300 mg/kg BID; assay type: ADME, organism-based; details: in vivo
[11] = Dose normalized AUC (0 to 24 hrs) in C3H/J mouse at 100 mg/kg, po by LC-MS/MS analysis; assay type: ADME, organism-based; details: in vivo
[12] = Dose normalized Cmax in C3H/J mouse at 100 mg/kg, po by LC-MS/MS analysis; assay type: ADME, organism-based; details: in vivo
[13] = Dose normalized AUC (0 to 24 hrs) in C57BL/6 mouse at 5 mg/kg, po by LC-MS/MS analysis; assay type: ADME, organism-based; details: in vivo
[14] = Toxicity in C3H/J mouse assessed as tolerability at 100 to 300 mg/kg BID for 5 days; assay type: organism-based; details: in vivo, 120 h, dose 100-300 mg/kg, time 5 day
[15] = fCmax in HBVcircle mouse model at 100 mg/kg QD; assay type: ADME, organism-based; details: in vivo
[16] = AUC (0 to infinity) in C3H/J mouse at 5 mg/kg, po by LC-MS/MS analysis; assay type: ADME, organism-based; design: time infinity, dose 5 mg/kg, route po; details: in vivo
[17] = Tmax in C3H/J mouse at 20 mg/kg, po by LC-MS/MS analysis; assay type: ADME, organism-based; details: in vivo
[18] = Dose normalized Cmax in C3H/J mouse at 20 mg/kg, po by LC-MS/MS analysis; assay type: ADME, organism-based; details: in vivo
Hepatitis B virus [19] = assay: Antiviral activity against HBV infected HBVcircle mouse model assessed as reduction in HBsAg levels in mouse serum at 300 mg/kg, po bid treated for 3 weeks and measured up to 56 days; assay type: functional, organism-based
[20] = fCmax in HBVcircle mouse model at 300 mg/kg BID; assay type: ADME, organism-based; details: in vivo
[21] = Dose normalized AUC (0 to 24 hrs) in C3H/J mouse at 20 mg/kg, po by LC-MS/MS analysis; assay type: ADME, organism-based; details: in vivo
Hepatitis B virus [22] = assay: Antiviral activity against HBV infected in human HepDES19 cells assessed as reduction in HBV cccDNA production by measuring inhibition of HBeAg secretion at 0.3 to 30 uM by southern blot analysis; assay type: functional, organism-based; details: dose 0.3-30 µM
[23] = fCmin in HBVcircle mouse model at 100 mg/kg QD; assay type: ADME, organism-based; details: in vivo
[24] = fCaverage in HBVcircle mouse model at 100 mg/kg BID; assay type: ADME, organism-based; details: in vivo
[25] = Cmax in C3H/J mouse plasma at 100 mg/kg, po by LC-MS/MS analysis; assay type: ADME, organism-based; design: dose 100 mg/kg, route po
[26] = Half life in C3H/J mouse at 20 mg/kg, po by LC-MS/MS analysis; assay type: ADME, organism-based; details: in vivo
[27] = Half life in C3H/J mouse at 100 mg/kg, po by LC-MS/MS analysis; assay type: ADME, organism-based; details: in vivo
[28] = Tmax in C3H/J mouse at 100 mg/kg, po by LC-MS/MS analysis; assay type: ADME, organism-based; details: in vivo
[29] = fCaverage in HBVcircle mouse model at 100 mg/kg QD; assay type: ADME, organism-based; details: in vivo
[30] = Cmax in C3H/J mouse plasma at 300 mg/kg, po by LC-MS/MS analysis; assay type: ADME, organism-based; design: dose 300 mg/kg, route po
[31] = Dose normalized AUC (0 to 12 hrs) in C3H/J mouse at 300 mg/kg, po by LC-MS/MS analysis; assay type: ADME, organism-based; details: in vivo
[32] = AUC (0 to 12 hrs) in C3H/J mouse at 300 mg/kg, po by LC-MS/MS analysis; assay type: ADME, organism-based; design: time < 12 hr, dose 300 mg/kg, route po; details: in vivo
[33] = Half life in C3H/J mouse at 5 mg/kg, po by LC-MS/MS analysis; assay type: ADME, organism-based; details: in vivo
Hepatitis B virus [34] = assay: Antiviral activity against HBV infected HBVcircle mouse model assessed as reduction in HBeAg levels in mouse serum at 300 mg/kg, po bid treated for 3 weeks and measured up to 56 days; assay type: functional, organism-based
Hepatitis B virus [35] = assay: Antiviral activity against HBV infected HBVcircle mouse model assessed as reduction in cccDNA levels in mouse liver at 300 mg/kg, po bid treated for 3 weeks and measured up to 56 days by qPCR analysis; assay type: functional, organism-based
[36] = fCmin in HBVcircle mouse model at 100 mg/kg BID; assay type: ADME, organism-based; details: in vivo
[37] = AUC (0 to infinity) in C3H/J mouse at 100 mg/kg, po by LC-MS/MS analysis; assay type: ADME, organism-based; design: time infinity, dose 100 mg/kg, route po; details: in vivo
[38] = Cmax in C3H/J mouse plasma at 5 mg/kg, po by LC-MS/MS analysis; assay type: ADME, organism-based; design: dose 5 mg/kg, route po
[39] = Dose normalized Cmax in C3H/J mouse at 5 mg/kg, po by LC-MS/MS analysis; assay type: ADME, organism-based; details: in vivo
[40] = Dose normalized Cmax in C3H/J mouse at 300 mg/kg, po by LC-MS/MS analysis; assay type: ADME, organism-based; details: in vivo
[41] = Tmax in C3H/J mouse at 300 mg/kg, po by LC-MS/MS analysis; assay type: ADME, organism-based; details: in vivo
[42] = Cmax in C3H/J mouse plasma at 20 mg/kg, po by LC-MS/MS analysis; assay type: ADME, organism-based; design: dose 20 mg/kg, route po
[43] = fCmin in HBVcircle mouse model at 300 mg/kg BID; assay type: ADME, organism-based; details: in vivo
[44] = AUC (0 to infinity) in C3H/J mouse at 20 mg/kg, po by LC-MS/MS analysis; assay type: ADME, organism-based; design: time infinity, dose 20 mg/kg, route po; details: in vivo
[45] = Cytotoxicity against human HepDES19 cells assessed as reduction in cell viability measured after 5 days by CCK-8 assay; assay type: toxicity, cell-based; details: time 5 day
Hepatitis B virus [46] = assay: Antiviral activity against HBV infected in human HepDES19 cells assessed as reduction in HBV cccDNA production by measuring inhibition of HBeAg secretion at 0.3 to 10 uM by southern blot analysis; assay type: functional, organism-based; details: dose 0.3-10 µM
[47] = Therapeutic index, ratio of CC50 for cytotoxicity against human HepDES19 cells assessed as reduction in cell viability measured after 5 days by CCK-8 assay to IC50 for antiviral activity against HBV infected in human HepDES19 cells assessed as reduction in HBV cccDNA production by measuring inhibition of HBeAg secretion incubated for 5 days by ELISA; assay type: toxicity, cell-based; details: time 5 day, read-out: Ratio CC50/IC50

O=C(O)[C@H]1CCN(c2ccc3c(=O)c4cccc(Cl)c4oc3c2)C1
pIC50 (Hepatitis B virus [1]): 5.80
Papp [2]: 30.2 nm/s
solubility [3]: > 0.43 mg/mL
logD [4]: 1.09
pIC50 (Hepatitis B virus [5]): 5.72
pIC50 (Hepatitis B virus [6]): < 4.30

O=C(O)C1CCN(c2ccc3c(=O)c4c(F)ccc(Cl)c4oc3c2)C1 (stereo not given)
pIC50 (Hepatitis B virus [1]): 5.07
CLint scaled [7]: 2.3 L/h/kg
Papp [2]: 18.3 nm/s
solubility [3]: 0.014 mg/mL (≈ 38.7 µM)
logD [4]: < -0.5
pIC50 (Hepatitis B virus [5]): 5.84
pIC50 (Hepatitis B virus [6]): < 4.30

O=C(O)[C@@H]1CCN(c2ccc3c(=O)c4cccc(Cl)c4oc3c2)C1
fCmax [8]: 1151 nM
Tmax [9]: 0.25 h
f(Cave) [10]: 1.053 µM
AUC/dose [11]: 1200 (ng·h/mL)/(mg/kg)
Cmax/dose [12]: 0.322 µg/mL
AUC/dose [13]: 1042 ng·h/mL
Activity [14]: Non-Toxic
fCmax [15]: 1151 nM
AUC(0-inf) [16]: 0.857 µg·h/mL
Tmax [17]: 0.5 h
Cmax/dose [18]: 0.408 µg/mL
pIC50 (Hepatitis B virus [1]): 5.94
CLint scaled [7]: 3.11 L/h/kg
Activity (Hepatitis B virus [19]): Active
fCmax [20]: 3.452 µM
AUC/dose [21]: 591 (ng·h/mL)/(mg/kg)
Papp [2]: 28.2 nm/s
Activity (Hepatitis B virus [22]): Active
fCmin [23]: 0.23 nM
f(Cave) [24]: 0.351 µM
Cmax [25]: 32.2 µg/mL
half-life [26]: 3.45 h
solubility [3]: > 0.452 mg/mL
half-life [27]: 1.82 h
Tmax [28]: 0.5 h
f(Cave) [29]: 0.178 µM
Cmax [30]: 59.9 µg/mL
AUC/dose [31]: 1510 (ng·h/mL)/(mg/kg)
logD [4]: 1
AUC(0-t) at 12 h [32]: 453 µg·h/mL
half-life [33]: 3.46 h
Activity (Hepatitis B virus [34]): Active
Activity (Hepatitis B virus [35]): Active
pIC50 (Hepatitis B virus [5]): 6.24
fCmin [36]: 20.7 nM
AUC(0-inf) [37]: 120 µg·h/mL
pIC50 (Hepatitis B virus [6]): < 4.30
Cmax [38]: 0.828 µg/mL
Cmax/dose [39]: 0.166 µg/mL
Cmax/dose [40]: 0.2 µg/mL
Tmax [41]: 2.67 h
Cmax [42]: 8.16 µg/mL
fCmin [43]: 62.2 nM
AUC(0-inf) [44]: 11.8 µg·h/mL

O=C(Nc1ccc2c(=O)c3cccc(F)c3oc2c1)c1ccccc1F
CC50 at 120 h [45]: > 100 µM
Activity (Hepatitis B virus [46]): Active
pIC50 (Hepatitis B virus [1]): 5.26
CLint scaled [7]: 5.2 L/h/kg
solubility [3]: < 0.001 mg/mL
selectivity ratio at 120 h [47]: > 141
pIC50 (Hepatitis B virus [5]): 6.15
pIC50 (Hepatitis B virus [6]): < 4.30
